Tests used:
HCV replicon = HCV replicon assay (Huh-Luc cells, luciferase read-out); format: cell-based, HCV type Ib; conditions: Hepatitis C virus, 72 h, three days incubation, luciferase activity
Description: The compounds of formula (I) were examined for inhibitory activity in the HCV replicon. This cellular assay is based on a bicistronic expression construct, as described by Lohmann et al. (1999) Science vol. 285 pp. 110-113 with modifications described by Krieger et al. (2001) Journal of Virology 75: 4614-4624, in a multi-target screening strategy.
In essence, the method was as follows:
The assay utilized the stably transfected cell line Huh-7 luc/neo (hereafter referred to as Huh-Luc). This cell line harbors an RNA encoding a bicistronic expression construct comprising the wild type NS3-NS5B regions of HCV type Ib translated from an Internal Ribosome Entry Site (IRES) from encephalomyocarditis virus (EMCV), preceded by a reporter portion (FfL-luciferase), and a selectable marker portion (neo^R, neomycine phosphotransferase). The construct is flanked by 5′ and 3′ NTRs (non-translated regions) from HCV type Ib. Continued culture of the replicon cells in the presence of G418 (neo^R) is dependent on the replication of the HCV RNA. The stably transfected replicon cells that express HCV RNA, which replicates autonomously and to high levels, encoding inter alia luciferase, were used for screening the antiviral compounds.
The replicon cells were plated in 384 well plates in the presence of the test and control compounds which were added in various concentrations. Following an incubation of three days, HCV replication was measured by assaying luciferase activity (using standard luciferase assay substrates and reagents and a Perkin Elmer ViewLux™ ultraHTS microplate imager). Replicon cells in the control cultures have high luciferase expression in the absence of any inhibitor. The inhibitory activity of the compound on luciferase activity was monitored on the Huh-Luc cells, enabling a dose-response curve for each test compound. EC50 values were then calculated, which represent the amount of compound required to decrease the level of detected luciferase activity by 50%, or more specifically, to reduce the ability of the genetically linked HCV replicon RNA to replicate.

Cytotoxicity (Huh-7) = format: cell-based; conditions: human, Huh-7 cells
Description: The in vitro antiviral activity against HCV of the compounds of formula I can be tested in a cellular HCV replicon system based on Lohmann et al. (1999) Science 285:110-113, with the further modifications described by Krieger et al. (2001) Journal of Virology 75: 4614-4624 (incorporated herein by reference), which is further exemplified in the examples section. This model, while not a complete infection model for HCV, is widely accepted as the most robust and efficient model of autonomous HCV RNA replication currently available. It will be appreciated that it is important to distinguish between compounds that specifically interfere with HCV functions from those that exert cytotoxic or cytostatic effects in the HCV replicon model, and as a consequence cause a decrease in HCV RNA or linked reporter enzyme concentration. Assays are known in the field for the evaluation of cellular cytotoxicity based for example on the activity of mitochondrial enzymes using fluorogenic redox dyes such as resazurin. Furthermore, cellular counter screens exist for the evaluation of non-selective inhibition of linked reporter gene activity, such as firefly luciferase. Appropriate cell types can be equipped by stable transfection with a luciferase reporter gene whose expression is dependent on a constitutively active gene promoter, and such cells can be used as a counter-screen to eliminate non-selective inhibitors.

Compound	EC50 (HCV replicon) [nM]	CC50 (Cytotoxicity (Huh-7)) [µM]
COC(=O)N[C@H](C(=O)N1CCC[C@H]1c1nc(-c2ccc(Oc3ccc(OC)c(-c4c[nH]c([C@@H]5CCCN5C(=O)[C@@H](NC(=O)OC)C(C)C)n4)c3)cc2)c[nH]1)C(C)C [Example 45]	62.7	1.66
O=C(C(c1ccccc1)n1ccnc1)N1CCC[C@H]1c1nc(-c2cccc(Oc3ccc(-c4cnc([C@@H]5CCCN5C(=O)C(c5ccccc5)n5ccnc5)[nH]4)cc3)c2)c[nH]1 (stereo partly drawn) [Example 35]	4.72	> 31.5
O=C(c1ccoc1)N1CCC[C@H]1c1nc(-c2cccc(Oc3ccc(-c4cnc([C@@H]5CCCN5C(=O)c5ccoc5)[nH]4)cc3)c2)c[nH]1 [Example 32]	978	> 31.5

— patent US8436036B2, “Diaryl ethers” (Janssen R&D Ireland, priority 2009, dated 2013)
